pIC50: −log10 of the molar value. Read-outs that look alike come from different tables or passages of the source.

These results are taken from patent publication US10611750B2, “Tetrahydroquinoline compositions as bet bromodomain inhibitors” (FORMA Therapeutics, Inc., priority 2013, dated 2020).

The target of test [1] is T1, BRD4 Bromodomain 1 (BRD4 BD1) (Homo sapiens, UniProt O60885).
T1 construct: 44-168 and BRD4 BD2
As to the kind of experiment: AlphaScreen binding assay, BRD4 BD1. To be noted: His-tagged BRD4 BD1 50 nM, biotinylated H4 (1-21) K5/8/12/16 tetra-acetylated peptide 50 nM, compounds listed under IC50 range headings. In outline:
(§1)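 An AlphaScreen competition format was used with His-BRD4 BD1 or BD2 and biotin-H4 K5/8/12/16-acetyl peptide, each at matched final levels of 50 nM (BD1) or 100 nM (BD2). Incubation in HEPES/NaCl buffer with 0.1% BSA and 0.01% Triton X-100 ran ≥1 h before IC50 determination.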
For orientation: Bead proximity is the source of the signal in Alpha formats.

Test [2] addresses T2, BRD4 Bromodomain 2 (BRD4 BD2) (Homo sapiens, UniProt O60885).
T2 construct: 333-460 were cloned, expressed, and purified to homogeneity
As to the kind of experiment: AlphaScreen binding assay, BRD4 BD2. To be noted: His-tagged BRD4 BD2 100 nM, biotinylated H4 (1-21) K5/8/12/16 tetra-acetylated peptide 100 nM, compounds listed under IC50 range headings. The method in brief: as §1

The test system of test [3] is acute myelocytic leukemia (AML) cell line MV4-11. As to the kind of experiment: Oncology cell growth assay (3-day proliferation, CellTiter-Glo). To be noted: Homo sapiens, MV4-11 cells, 3000 cells/well, compounds listed under IC50 range headings, read-out: MV411 IC50 (gIC50, inhibition of proliferation). The test is classed as cell-based. In outline:
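MV4-11 AML cells (RPMI 1640, 10% FBS) plated at 3000 cells/well and exposed 72 h to compound at final 10 to 0.0045 μM (3-fold series). Viability read by CellTiter-Glo luminescence; gIC50 from four-parameter logistic fit between DMSO control and no-cell background.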
Background: ATP-based viability assays read luminescence as a measure of living cells.

Turning to `COC(=O)N1c2ccc(-c3cnn(C4CCN(C)CC4)c3)c(Oc3ccc(F)cc3)c2CC[C@@H]1C` [I-283, Methyl (S)-5-(4-fluorophenoxy)-2-methyl-6-(1-(1-methylpiperidin-4-yl)-1H-pyrazol-4-yl)-3,4-dihydroquinoline-1(2H)-carboxylate], the pIC50 in test [1] is 6.00 to 7.00; in test [2], more than 7.30; in test [3] (MV4-11, 72 h), more than 6.30.
Turning to `COC(=O)N1c2ccc(-c3cnn(C4CN(C)C4)c3)c(OC3CCC3)c2CC[C@@H]1C` [I-284, Methyl (S)-5-cyclobutoxy-2-methyl-6-(1-(1-methylazetidin-3-yl)-1H-pyrazol-4-yl)-3,4-dihydroquinoline-1(2H)-carboxylate], the pIC50 in test [1] is 5.00 to 6.00; in test [2], 6.30 to 7.30; in test [3] (MV4-11, 72 h) it was 6.00 to 6.30.
Consider `COC(=O)N1c2ccc(-c3cnn(C4CCN(C)CC4)c3)c(OC3CCC3)c2CC[C@@H]1C` [I-285, Methyl (S)-5-cyclobutoxy-2-methyl-6-(1-(1-methylpiperidin-4-yl)-1H-pyrazol-4-yl)-3,4-dihydroquinoline-1(2H)-carboxylate], for which the pIC50 is 6.00 to 7.00 in test [1]; more than 7.30 in test [2]; more than 6.30 in test [3] (MV4-11, 72 h).
As for `CC(=O)N1c2ccc(-c3cnn(C4CC4)c3)c(Oc3ncccc3C)c2CC[C@@H]1C` [I-286, (S)-1-(6-(1-cyclopropyl-1H-pyrazol-4-yl)-2-methyl-5-(3-methylpyridin-2-yloxy)-3,4-dihydroquinolin-1 (2H)-yl)ethanone], the pIC50 is 5.00 to 6.00 in test [1]; 6.30 to 7.30 in test [2]; more than 6.30 in test [3] (MV4-11, 72 h).
The corresponding values for `CC(=O)N1c2ccc(-c3cnn(C4CC4)c3)c(Oc3ccc(C)cn3)c2CC[C@@H]1C` [I-287, (S)-1-(6-(1-cyclopropyl-1H-pyrazol-4-yl)-2-methyl-5-(5-methylpyridin-2-yloxy)-3,4-dihydroquinolin-1(2H)-yl)ethanone] are 6.00 to 7.00, more than 7.30 and more than 6.30.
Turning to `CC(=O)N1c2ccc(-c3cnn(C4CC4)c3)c(Oc3ccc(Cl)cn3)c2CC[C@@H]1C` [I-288, (S)-1-(5-(5-chloropyridin-2-yloxy)-6-(1-cyclopropyl-1H-pyrazol-4-yl)-2-methyl-3,4-dihydroquinolin-1(2H)-yl)ethanone], the pIC50 in test [1] is 6.00 to 7.00; in test [2], more than 7.30; in test [3] (MV4-11, 72 h), more than 6.30.
On to `CC(=O)N1c2ccc(-c3cnn(C4CC4)c3)c(Oc3ncc4[nH]cnc4n3)c2CC[C@@H]1C` [I-289, (S)-1-(5-(7H-purin-2-yloxy)-6-(1-cyclopropyl-1H-pyrazol-4-yl)-2-methyl-3,4-dihydroquinolin-1(2H)-yl)ethanone], for which the pIC50 is 5.00 to 6.00 in test [1]; 6.30 to 7.30 in test [2]; 6.00 to 6.30 in test [3] (MV4-11, 72 h).
The corresponding values for `C/C=C/n1c(Oc2c(-c3cnn(C4CC4)c3)ccc3c2CC[C@H](C)N3C(C)=O)nc2ccccc21` [I-351, (S,E)-1-(6-(1-cyclopropyl-1H-pyrazol-4-yl)-2-methyl-5-(1-(prop-1-enyl)-1H-benzo[d]imidazol-2-yloxy)-3,4-dihydroquinolin-1(2H)-yl)ethanone] are 5.00 to 6.00, more than 7.30 and more than 6.30.
As to `CCCOc1c(C2CCNCC2)ccc2c1CC[C@H](C)N2C(C)=O` [I-353, (S)-1-(2-methyl-6-(piperidin-4-yl)-5-propoxy-3,4-dihydroquinolin-1(2H)-yl)ethan-1-one], the pIC50 in test [1] was not above 5.00; in test [2], not above 6.30; in test [3] (MV4-11, 72 h), less than 6.00.
`CCCOc1c(C2CCN(C(C)=O)CC2)ccc2c1CC[C@H](C)N2C(C)=O` [I-354, (S)-1-(4-(1-acetyl-2-methyl-5-propoxy-1,2,3,4-tetrahydroquinolin-6-yl)piperidin-1-yl)ethan-1-one]: the pIC50 in test [1] is not above 5.00; in test [2], not above 6.30; in test [3] (MV4-11, 72 h), less than 6.00.
Turning to `CCCOc1c(C2CCN(S(C)(=O)=O)CC2)ccc2c1CC[C@H](C)N2C(C)=O` [I-355, (S)-1-(2-methyl-6-(1-(methylsulfonyl)piperidin-4-yl)-5-propoxy-3,4-dihydroquinolin-1 (2H)-yl)ethan-1-one], the pIC50 in test [1] was not above 5.00; in test [2], not above 6.30; in test [3] (MV4-11, 72 h), less than 6.00.
Take `CCCOc1c(C2CCN(C(=O)NCC)CC2)ccc2c1CC[C@H](C)N2C(C)=O` [I-356, (S)-4-(1-acetyl-2-methyl-5-propoxy-1,2,3,4-tetrahydroquinolin-6-yl)-N-ethylpiperidine-1-carboxamide]: the pIC50 was not above 5.00 in test [1]; 6.30 to 7.30 in test [2]; less than 6.00 in test [3] (MV4-11, 72 h).
As to `CCCOc1c(C2CCN(C(=O)OC)CC2)ccc2c1CC[C@H](C)N2C(C)=O` [I-357, methyl (S)-4-(1-acetyl-2-methyl-5-propoxy-1,2,3,4-tetrahydroquinolin-6-yl)piperidine-1-carboxylate], the pIC50 is not above 5.00 in test [1], not above 6.30 in test [2] and less than 6.00 in test [3] (72 hours).
On to `CCCOc1c(C2CCN(CC)CC2)ccc2c1CC[C@H](C)N2C(C)=O` [I-358, (S)-1-(6-(1-ethylpiperidin-4-yl)-2-methyl-5-propoxy-3,4-dihydroquinolin-1(2H)-yl)ethan-1-one], for which the pIC50 in test [1] is not above 5.00; in test [2], not above 6.30; in test [3] (MV4-11, 72 h), less than 6.00.
Consider `CC(=O)N1c2ccc(-c3cnn(C4CCNCC4)c3)c(Nc3ccccc3)c2CC[C@@H]1C` [I-359, (S)-1-(2-methyl-5-(phenylamino)-6-(1-(piperidin-4-yl)-1H-pyrazol-4-yl)-3,4-dihydroquinolin-1(2H)-yl)ethan-1-one], for which the pIC50 in test [1] is 5.00 to 6.00; in test [2] it was 6.30 to 7.30; in test [3] (72 hours), more than 6.30.
As to `COC(=O)N1c2ccc(-c3cnn([C@@H]4CCNC[C@@H]4F)c3)c(OC3CCC3)c2CC[C@@H]1C` [I-361, methyl (S)-5-cyclobutoxy-6-(1-((3S,4R)-3-fluoropiperidin-4-yl)-1H-pyrazol-4-yl)-2-methyl-3,4-dihydroquinoline-1(2H)-carboxylate], the pIC50 in test [1] is more than 7.00; in test [2] it was more than 7.30; in test [3] (MV4-11, 72 h), more than 6.30.
In the same order, the values of `COC(=O)N1c2ccc(-c3cnn([C@H]4CCNC[C@H]4F)c3)c(OC3CCC3)c2CC[C@@H]1C` [I-362, methyl (2S)-5-cyclobutoxy-6-{1-[(3R,4S)-3-fluoropiperidin-4-yl]-1H-pyrazol-4-yl}-2-methyl-1,2,3,4-tetrahydroquinoline-1-carboxylate] are 6.00 to 7.00, more than 7.30 and more than 6.30.
For `COC(=O)N1c2ccc(-c3cnn([C@H]4CCNC[C@@H]4F)c3)c(OC3CCC3)c2CC[C@@H]1C` [I-363, methyl (2S)-5-cyclobutoxy-6-{1-[(3S,4S)-3-fluoropiperidin-4-yl]-1H-pyrazol-4-yl}-2-methyl-1,2,3,4-tetrahydroquinoline-1-carboxylate], the pIC50 is 6.00 to 7.00 in test [1]; more than 7.30 in test [2]; more than 6.30 in test [3] (MV4-11, 72 h).
Take `COC(=O)N1c2ccc(-c3cnn([C@H]4CCNC[C@@H]4F)c3)c(Oc3ccc(F)cc3)c2CC[C@@H]1C` [I-364, methyl (2S)-5-(4-fluorophenoxy)-6-{1-[(3S,4S)-3-fluoropiperidin-4-yl]-1H-pyrazol-4-yl}-2-methyl-1,2,3,4-tetrahydroquinoline-1-carboxylate]: the pIC50 in test [1] was 6.00 to 7.00; in test [2], more than 7.30; in test [3] (MV4-11, 72 h) it was more than 6.30.
Regarding `COC(=O)N1c2ccc(-c3cnn([C@@H]4CCNC[C@@H]4F)c3)c(Oc3ccc(F)cc3)c2CC[C@@H]1C` [I-365, methyl (2 S)-5-(4-fluorophenoxy)-6-{1-[(3S,4R)-3-fluoropiperidin-4-yl]-1H-pyrazol-4-yl}-2-methyl-1,2,3,4-tetrahydroquinoline-1-carboxylate], the pIC50 in test [1] was 6.00 to 7.00; in test [2], more than 7.30; in test [3] (MV4-11, 72 h), more than 6.30.
In the case of `COC(=O)N1c2ccc(-c3cnn([C@H]4CCNC[C@H]4F)c3)c(Oc3ccc(F)cc3)c2CC[C@@H]1C` [I-366, methyl (2 S)-5-(4-fluorophenoxy)-6-{1-[(3R,4S)-3-fluoropiperidin-4-yl]-1H-pyrazol-4-yl}-2-methyl-1,2,3,4-tetrahydroquinoline-1-carboxylate], the pIC50 in test [1] was 6.00 to 7.00; in test [2], more than 7.30; in test [3] (MV4-11, 72 h) it was more than 6.30.
For `CC(=O)N1c2ccc(-c3cnn(C4CC4)c3)c(OCCNS(C)(=O)=O)c2CC[C@@H]1C` [I-382], the pIC50 is 6.00 to 7.00 in test [1]; 6.30 to 7.30 in test [2]; 6.00 to 6.30 in test [3] (MV4-11, 72 h).
For the molecule `CC(=O)N1c2ccc(-c3cnn(C4CC4)c3)c(OCC3CCCC3)c2CC[C@@H]1C` [I-385], the pIC50 in test [1] was more than 7.00; in test [2] it was more than 7.30; in test [3] (MV4-11, 72 h), more than 6.30.
As to `CCCOc1c(-c2cnn(C3CC3)c2)ccc2c1CC[C@H](C)N2C(C)=O` [I-387], the pIC50 in test [1] is 6.00 to 7.00; in test [2], more than 7.30; in test [3] (MV4-11, 72 h) it was more than 6.30.
As to `CC(=O)N1c2ccc(-c3cnn(C4CC4)c3)c(OC(C)C)c2CC[C@@H]1C` [I-388], the pIC50 was 6.00 to 7.00 in test [1]; 6.30 to 7.30 in test [2]; 6.00 to 6.30 in test [3] (MV4-11, 72 h).
